Results from ChEMBL document CHEMBL3779840, “Discovery of 2-((3-Amino-4-methylphenyl)amino)-N-(2-methyl-5-(3-(trifluoromethyl)benzamido)phenyl)-4-(methylamino)pyrimidine-5-carboxamide (CHMFL-ABL-053) as a Potent, Selective, and Orally Available BCR-ABL/SRC/p38 Kinase Inhibitor for Chronic Myeloid Leukemia” (J Med Chem, 2016).

Legend:
[1] = Antiproliferative activity against mouse BA/F3 cells assessed as cell viability after 72 hrs by CellTiter-Glo or CCK-8 assay; type: cell-based, BaF3
K562 = experiment: Antiproliferative activity against human K562 cells assessed as cell viability after 72 hrs by CellTiter-Glo or CCK-8 assay; type: functional; settings: K562, 72 h
[2] = biological target: Transcription factor ETV6/Tyrosine-protein kinase ABL1 (Homo sapiens) (UniProt P00519+P41212); settings: BaF3
Description: Inhibition of Tel-ABL (unknown origin) expressed in mouse BA/F3 cells assessed as cell growth inhibition after 72 hrs by CellTiter-Glo or CCK-8 assay

[3] = biological target: Bcr/Abl fusion protein (Homo sapiens) (UniProt P00519+P11274); settings: BaF3
Sequence of Bcr/Abl fusion protein (Homo sapiens) (P00519 whole entry, looked up, the tested form may be a part): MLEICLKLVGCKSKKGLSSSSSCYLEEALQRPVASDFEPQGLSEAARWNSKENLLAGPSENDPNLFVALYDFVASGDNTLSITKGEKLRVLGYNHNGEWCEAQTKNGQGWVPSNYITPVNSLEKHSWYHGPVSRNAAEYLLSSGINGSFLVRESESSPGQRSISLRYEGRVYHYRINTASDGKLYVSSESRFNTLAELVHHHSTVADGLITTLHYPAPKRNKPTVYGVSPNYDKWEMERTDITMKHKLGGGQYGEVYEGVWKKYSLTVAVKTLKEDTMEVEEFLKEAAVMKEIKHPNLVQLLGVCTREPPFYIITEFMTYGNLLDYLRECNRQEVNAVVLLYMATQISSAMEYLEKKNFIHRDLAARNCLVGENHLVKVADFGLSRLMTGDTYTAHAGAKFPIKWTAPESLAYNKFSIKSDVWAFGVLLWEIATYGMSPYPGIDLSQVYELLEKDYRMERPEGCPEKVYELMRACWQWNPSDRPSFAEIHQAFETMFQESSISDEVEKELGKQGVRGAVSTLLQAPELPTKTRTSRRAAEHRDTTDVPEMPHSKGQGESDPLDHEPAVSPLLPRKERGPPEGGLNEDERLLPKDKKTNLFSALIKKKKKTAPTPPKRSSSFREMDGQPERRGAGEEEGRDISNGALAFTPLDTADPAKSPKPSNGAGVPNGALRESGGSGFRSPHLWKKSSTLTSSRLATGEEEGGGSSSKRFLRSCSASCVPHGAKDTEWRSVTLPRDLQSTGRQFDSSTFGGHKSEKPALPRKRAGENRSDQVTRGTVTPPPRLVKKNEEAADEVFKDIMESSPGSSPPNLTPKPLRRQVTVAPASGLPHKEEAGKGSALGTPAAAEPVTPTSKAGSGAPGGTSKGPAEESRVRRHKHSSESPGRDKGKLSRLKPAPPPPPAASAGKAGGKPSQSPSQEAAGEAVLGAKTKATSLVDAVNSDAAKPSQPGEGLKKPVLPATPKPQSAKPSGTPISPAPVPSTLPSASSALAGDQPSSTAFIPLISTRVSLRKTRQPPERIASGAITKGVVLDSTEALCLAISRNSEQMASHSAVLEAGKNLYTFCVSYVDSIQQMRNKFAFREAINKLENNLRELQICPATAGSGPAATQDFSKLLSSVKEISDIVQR
Sequence of Bcr/Abl fusion protein (Homo sapiens) (P11274 whole entry, looked up, the tested form may be a part): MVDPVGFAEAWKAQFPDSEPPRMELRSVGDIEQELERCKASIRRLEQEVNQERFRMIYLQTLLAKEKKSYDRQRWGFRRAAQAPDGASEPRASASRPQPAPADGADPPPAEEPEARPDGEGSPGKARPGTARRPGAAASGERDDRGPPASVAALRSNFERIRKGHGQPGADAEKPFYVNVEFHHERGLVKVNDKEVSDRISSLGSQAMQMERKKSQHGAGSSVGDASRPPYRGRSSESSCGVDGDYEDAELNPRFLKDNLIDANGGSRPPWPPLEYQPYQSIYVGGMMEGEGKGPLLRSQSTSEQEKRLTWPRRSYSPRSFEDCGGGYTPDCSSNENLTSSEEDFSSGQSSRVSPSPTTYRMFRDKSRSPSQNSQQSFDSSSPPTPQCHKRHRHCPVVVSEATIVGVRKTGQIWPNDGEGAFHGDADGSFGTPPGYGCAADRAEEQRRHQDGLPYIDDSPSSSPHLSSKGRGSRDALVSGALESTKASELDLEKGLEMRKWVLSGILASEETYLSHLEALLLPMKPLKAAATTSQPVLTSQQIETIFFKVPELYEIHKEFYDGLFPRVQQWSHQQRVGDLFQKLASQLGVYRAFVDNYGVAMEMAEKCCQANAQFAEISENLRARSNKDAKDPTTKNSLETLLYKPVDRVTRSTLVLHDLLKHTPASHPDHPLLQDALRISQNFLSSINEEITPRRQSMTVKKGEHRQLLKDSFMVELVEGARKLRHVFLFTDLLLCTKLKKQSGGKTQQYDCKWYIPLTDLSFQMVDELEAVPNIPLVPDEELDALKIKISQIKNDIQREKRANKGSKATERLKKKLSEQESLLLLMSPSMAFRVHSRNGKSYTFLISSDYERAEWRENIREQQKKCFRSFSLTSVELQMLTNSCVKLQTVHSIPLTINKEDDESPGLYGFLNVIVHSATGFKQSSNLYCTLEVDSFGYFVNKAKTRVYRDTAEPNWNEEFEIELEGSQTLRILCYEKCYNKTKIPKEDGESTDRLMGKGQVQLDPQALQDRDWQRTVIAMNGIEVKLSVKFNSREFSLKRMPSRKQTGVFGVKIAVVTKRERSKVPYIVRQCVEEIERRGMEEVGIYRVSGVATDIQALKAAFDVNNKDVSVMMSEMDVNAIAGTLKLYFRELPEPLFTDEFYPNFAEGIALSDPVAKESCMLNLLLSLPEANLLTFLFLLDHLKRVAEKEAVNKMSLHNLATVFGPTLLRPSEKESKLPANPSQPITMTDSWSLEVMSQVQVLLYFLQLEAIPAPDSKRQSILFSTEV
Description: Inhibition of BCR/ABL p210 (unknown origin) expressed in mouse BA/F3 cells assessed as growth inhibition after 72 hrs by CellTiter-Glo or CCK-8 assay

Sequence of Transcription factor ETV6/Tyrosine-protein kinase ABL1 (Homo sapiens) (P00519 whole entry, looked up, the tested form may be a part): as the sequence (P00519 whole entry, looked up, the tested form may be a part) above
Sequence of Transcription factor ETV6/Tyrosine-protein kinase ABL1 (Homo sapiens) (P41212 whole entry, looked up, the tested form may be a part): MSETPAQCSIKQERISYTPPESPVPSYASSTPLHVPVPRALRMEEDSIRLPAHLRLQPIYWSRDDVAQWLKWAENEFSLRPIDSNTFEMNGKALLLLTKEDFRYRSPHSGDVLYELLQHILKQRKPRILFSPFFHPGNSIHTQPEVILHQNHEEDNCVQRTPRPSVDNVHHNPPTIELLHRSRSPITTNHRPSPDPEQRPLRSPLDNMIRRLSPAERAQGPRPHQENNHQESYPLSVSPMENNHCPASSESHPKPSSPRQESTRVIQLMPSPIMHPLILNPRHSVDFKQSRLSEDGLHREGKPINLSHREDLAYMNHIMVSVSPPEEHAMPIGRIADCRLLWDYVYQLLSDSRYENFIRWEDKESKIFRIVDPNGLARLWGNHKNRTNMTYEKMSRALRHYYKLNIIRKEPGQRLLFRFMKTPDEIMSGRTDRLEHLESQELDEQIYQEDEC

GI50 (K562) [nM] | GI50 [2] [nM] | GI50 [3] [nM] | Structure (SMILES) | GI50 at 72 h [1] [nM]
19 | 100 | 150 | Cc1ccc(NC(=O)c2cccc(C(F)(F)F)c2)cc1N1Cc2cnc(NC3CCNCC3)nc2N(C)C1=O | 3000
499 | 1290 | 214 | CNc1nc(Nc2ccc(C)c([N+](=O)[O-])c2)ncc1C(=O)Nc1cc(NC(=O)c2ccc3c(c2)OCO3)ccc1C | > 10000
> 10000 | > 10000 | > 10000 | Cc1ccc(NC(=O)c2cccc(C(F)(F)F)c2)cc1NC(=O)c1cnc(Nc2ccc(C)c([N+](=O)[O-])c2)nc1N(C)C | > 10000
52 | 87 | 36 | CNc1nc(Nc2ccc(C)c([N+](=O)[O-])c2)ncc1C(=O)Nc1cc(NC(=O)c2cccc(C(F)(F)F)c2)ccc1C | > 10000
320 | 787 | 1100 | CNc1nc(Nc2ccc(C)c(N)c2)ncc1C(=O)Nc1cc(NC(=O)c2ccc3c(c2)OCCO3)ccc1C | > 10000
1980 | 5200 | 6400 | CNc1nc(Nc2ccc(C)c(N)c2)ncc1C(=O)Nc1cc(NC(=O)c2ccccc2OC)ccc1C | > 10000
18 | 105 | 55 | Cc1ccc(NC(=O)c2cccc(C(F)(F)F)c2)cc1N1Cc2cnc(NC3CCN(C(=O)OC(C)(C)C)CC3)nc2N(C)C1=O | 7520
17 | 61 | 66 | Cc1ccc(Nc2ncc3c(n2)N(C)C(=O)N(c2cc(NC(=O)c4cccc(C(F)(F)F)c4)ccc2C)C3)cc1C | 3760
68.8 | 6 | 14 | Cc1cccc(C(=O)Nc2ccc(C)c(N3Cc4cnc(Nc5ccc(C)c(N)c5)nc4N(C)C3=O)c2)c1 | > 10000
9 |  |  | Cc1ccc(Nc2ncc3c(n2)N(C)C(=O)N(c2cc(NC(=O)c4cccc(C(F)(F)F)c4)ccc2C)C3)cn1 | 120
18 | 50 | 19 | Cc1ccc(Nc2ncc3c(n2)N(C)C(=O)N(c2cc(NC(=O)c4cccc(C(F)(F)F)c4)ccc2C)C3)cc1 | 8000
1530 | 2900 | 3600 | CNc1nc(Nc2ccc(C)c([N+](=O)[O-])c2)ncc1C(=O)Nc1cc(NC(=O)c2ccc(OC)cc2)ccc1C | > 10000
680 | 1400 | 1600 | CNc1nc(Nc2ccc(C)c([N+](=O)[O-])c2)ncc1C(=O)Nc1cc(NC(=O)c2ccc(OC)c(OC)c2)ccc1C | 7300
480 | 983 | 1100 | CNc1nc(Nc2ccc(C)c([N+](=O)[O-])c2)ncc1C(=O)Nc1cc(NC(=O)c2cccc(OC)c2)ccc1C | 6310
1210 | 1030 | 1850 | Cc1ccc(Nc2ncc(C(=O)Nc3cc(NC(=O)c4cccc(C(F)(F)F)c4)ccc3C)c(N(C)C)n2)cc1N | > 10000
330 | 524 | 570 | CNc1nc(Nc2ccc(C)c(N)c2)ncc1C(=O)Nc1cc(NC(=O)c2cccc(OC)c2)ccc1C | > 10000
353 | 570 | 124 | CNc1nc(Nc2ccc(C)c(N)c2)ncc1C(=O)Nc1cc(NC(=O)c2ccc3c(c2)OCO3)ccc1C | > 10000
450 | 1380 | 1260 | Cc1ccc(NC(=O)c2cccc(C(F)(F)F)c2)cc1N1Cc2cnc(O[C@H]3CCNC3)nc2N(C)C1=O | > 10000

GI50 (K562) [nM] | GI50 [2] [nM] | GI50 [3] [nM] | Structure (SMILES) | GI50 at 72 h [1] [nM]
610 | 1300 | 2100 | CNc1nc(Nc2ccc(C)c(N)c2)ncc1C(=O)Nc1cc(NC(=O)c2ccc(OC)cc2)ccc1C | > 10000
> 10000 | > 10000 | > 10000 | CNc1nc(Nc2ccc(C)c([N+](=O)[O-])c2)ncc1C(=O)Nc1cc(NC(=O)c2ccccc2OC)ccc1C | > 10000
230 | 628 | 311 | CNc1nc(Nc2ccc(C)c(N)c2)ncc1C(=O)Nc1cc(NC(=O)c2cc(OC)cc(OC)c2)ccc1C | > 10000
19 | 20 | 14 | CNc1cc(Nc2ncc3c(n2)N(C)C(=O)N(c2cc(NC(=O)c4cccc(C(F)(F)F)c4)ccc2C)C3)ccc1C | > 10000
1300 | 96 | 120 | Cc1ccc(Nc2ncc3c(n2)N(C)C(=O)N(c2cc(NC(=O)c4cc(C(C)(C)C)cc(C(C)(C)C)c4)ccc2C)C3)cc1N | > 10000
7 | 9 | 15 | Cc1ccc(NC(=O)c2cccc(C(F)(F)F)c2)cc1N1Cc2cnc(NCCCN3CCOCC3)nc2N(C)C1=O | 5600
30 | 292 | 126 | Cc1ccc(NC(=O)c2cccc(C(F)(F)F)c2)cc1N1Cc2cnc(O[C@H]3CCN(C(=O)OC(C)(C)C)C3)nc2N(C)C1=O | 8380
380 | 1400 | 1200 | Cc1ccc(NC(=O)c2cccc(C(F)(F)F)c2)cc1NC(=O)c1cnc(Nc2ccc(C)c([N+](=O)[O-])c2)nc1 | 8700
430 | 931 | 1500 | CNc1nc(Nc2ccc(C)c([N+](=O)[O-])c2)ncc1C(=O)Nc1cc(NC(=O)c2cc(OC)c(OC)c(OC)c2)ccc1C | > 10000
26 | 31 | 42 | Cc1cc(C)cc(C(=O)Nc2ccc(C)c(N3Cc4cnc(Nc5ccc(C)c(N)c5)nc4N(C)C3=O)c2)c1 | > 10000
380 | 1100 | 1600 | CNc1nc(Nc2ccc(C)c(N)c2)ncc1C(=O)Nc1cc(NC(=O)c2ccc(OC)c(OC)c2)ccc1C | > 10000
29 | 185 | 67 | Cc1ccc(NC(=O)c2cccc(C(F)(F)F)c2)cc1N1Cc2cnc(Nc3ccc(C)c(C(F)(F)F)c3)nc2N(C)C1=O | > 10000
28 | 42 | 30 | Cc1ccc(Nc2ncc3c(n2)N(C)C(=O)N(c2cc(NC(=O)c4cccc(C(F)(F)F)c4)ccc2C)C3)cc1N(C)C | > 10000
29 | 288 | 132 | Cc1ccc(NC(=O)c2cccc(C(F)(F)F)c2)cc1N1Cc2cnc(OC3CCN(C(=O)OC(C)(C)C)CC3)nc2N(C)C1=O | > 10000
1070 | 2030 | 294 | CNc1nc(Nc2ccc(C)c([N+](=O)[O-])c2)ncc1C(=O)Nc1cc(NC(=O)c2cc(OC)cc(OC)c2)ccc1C | > 10000
320 | 4240 | 4100 | CNc1nc(Nc2ccc(C)c([N+](=O)[O-])c2)ncc1C(=O)Nc1cc(NC(=O)c2ccc3c(c2)OCCO3)ccc1C | > 10000
13 | 15 | 32 | Cc1ccc(Oc2ncc3c(n2)N(C)C(=O)N(c2cc(NC(=O)c4cccc(C(F)(F)F)c4)ccc2C)C3)cc1N | > 10000
